Patent US7108832B2, “Sterialization methods and apparatus which employ additive-containing supercritical carbon dioxide sterilant” (NovaSterilis Inc., priority 2003, dated 2006)
Values joined by “and” are separate entries in the source; they are usually repeats but may differ in a detail not shown here. Identical values can stand only once.

Tests used:
[1] = tested on: B. stearothermophilus spores; assay: Comparative additives in supercritical CO2 sterilization (Example 7); assay type: cell-based; settings: 1.0 vol. %
[2] = tested on: B. subtilis spore/vegetative preparations; assay: Sterilization of B. subtilis spore/vegetative preparations with additive-containing supercritical CO2, residual CFU count (Examples 3A-3D, 6A, 6B); assay type: cell-based; settings: for kill of bioindicators: constant 2000 psi rather than cycling
Method: A sample of B. subtilis spore/vegetative preparations (1 mL) of greater than 10^6 CFU/mL was placed in a 16 mm diameter test tube in a stainless steel basket. Acetic acid (6 mL) was transferred by syringe onto the surface of a cotton ball placed in the basket, which was then loaded into the 600 mL reactor vessel. The reactor vessel was heated to 50° C. and equilibrated with CO2 at atmospheric pressure. […] Agitation was carried out for 1 minute.
After depressurizing the reactor vessel, more acetic acid (4 mL) was introduced at ambient pressure to the additive loop via port 18 (FIG. 1). The loop was sealed and pressurized to 3000 psi. The reactor vessel was the re-pressurized through the additive loop to 3000 psi such that acetic acid was transported into the reactor vessel.
(§1) The pressurization/stirring/agitation/depressurization/additive addition process was repeated a total of three times. After the third cycle, a series of three flushing cycles to remove the additive was performed by pressurizing and de-pressurizing the reactor vessel using CO2. The stirring was stopped and the basket was removed from the reactor vessel. The residual CFUs were counted after serial dilution and culturing of both treated and untreated controls.

[3] = tested on: B. stearothermophilus spores; assay: Linearity of inactivation, B. stearothermophilus spore bioindicators in TYVEK pouches (Example 8); assay type: cell-based; settings: 4.5% peracetic acid at 0.02 vol. % + water at 1 vol. %
Method: Example 2B was repeated except that 4.5% peracetic acid was initially added to the vessel at 0.02 vol. % on a cotton ball and water was added on a separate cotton ball at 1 vol. %. B. stearothermophilus spores were inoculated onto glass fiber filters, allowed to dry and packaged into pouches formed of nonwoven fine polyethylene fibers (1073B TYVEK® brand material) and served as bioindicators. Total CFUs per filter were greater than 10^6. The bioindicators were exposed to differing times of treatment with 4 replicates per time point. The total remaining CFUs were then determined and a plot was generated of log reduction in CFUs over time (FIG. 3).

B. subtilis spores = settings: method of the Dillow et al '864 patent, other investigators (Spilimbergo et al 2002); cited from earlier work
[4] = tested on: B. stearothermophilus spores; assay: Inactivation of B. stearothermophilus spores, Dillow '864 method with and without additive (Example 1); assay type: cell-based; settings: 1500–3000 psi, 3 cycles, agitation random/directional +/−, 60 °C, 2 hrs, initial 2.3 × 10^6 CFU/ml
From the text: The effects of using an additive in accordance with the present invention was compared using the method described by U.S. Pat. No. 6,149,864 to Dillow et al for inactivating B. stearothermophilus spores. […] In contrast, a greater than 6 log reduction was achieved using the method of the present invention (Ex. B). The additive was placed on a cotton ball and inserted in the chamber prior to closure. No further additive was used.

[5] = tested on: B. stearothermophilus spores; assay: Sterilization of B. stearothermophilus spores with additive-containing supercritical CO2, residual CFU count (Example 2); assay type: cell-based; settings: 4 mL additive + 6 mL water, 50° C., 2000 to 1100 psi, 3 cycles; multiple evaluations
Method: The apparatus generally depicted in FIGS. 1 and 2 was employed for this Example. A sample of B. stearothermophilus spores (1 mL) of greater than 10^6 CFU/mL was placed in 16 mm diameter test tubes in a stainless steel basket. Trifluoroacetic acid (4 mL) was transferred by syringe onto the surface of a cotton ball placed in the basket and water (6 mL) was placed at bottom of vessel. The basket was then loaded into the 600 mL reactor vessel. The reactor vessel was heated to 50° C. and equilibrated with CO2 at atmospheric pressure. The stirring and agitation mechanisms were activated and the reactor vessel pressurized to 2000 psi for 40 minutes. The CO2 pressure was then allowed to drop to 1100 psi at a rate of 300 psi/minute. Agitation by means of vibration of the vessel was carried out for 1 minute.
as §1, with “The pressurization/stirring/agitation/depressurization process was” for “The pressurization/stirring/agitation/depressurization/additive addition process was”, “pressurizing and partial de-pressurizing the” for “pressurizing and de-pressurizing the”

bacterial spores = assay: Sterility assay of fresh or freeze-dried bone samples after treatment (Example 4); assay type: cell-based; settings: 4 mL additive, 50° C., 3000 to 1500 psi, 3 cycles of 40 minutes
Method: Using the equipment and procedure in Example 1, samples of fresh or freeze-dried bone (1 cm×1 cm×0.5 cm) were placed into 16 mm test tubes in a stainless steel basket. Trifluoroacetic acid (4 mL) was transferred by syringe onto the surface of a cotton ball placed in basket, and the basket then loaded into the 600 mL reactor vessel. The reactor vessel was heated to 50° C. and equilibrated with CO2 at atmospheric pressure. The stirring and agitation mechanisms were activated and vessel pressurized to 3000 psi for 40 minutes. Agitation is carried out for 5 minutes. The CO2 pressure was then allowed to drop to 1500 psi at a rate of 300 psi/minute.
The pressurization/stirring/agitation/depressurization process was repeated a total of 3 times. After the third cycle, a series of three flushing cycles to remove the additive was performed by pressurizing and de-pressurizing the reactor vessel using CO2. The stirring was stopped and the basket was removed from the reactor vessel. Bone samples were assayed for sterility and compression strength with the results being that there was sterilization (i.e., >10^6 reduction in bacterial spores), and there was no reduction in compression strength attributes.

With `O=C(O)CC(O)(CC(=O)O)C(=O)O` [50% Citric acid, Citric acid] the Log reduction ([1]; 60 C, 2 hours, 3 cycles) was 0.03–0.62 log.

In the case of `OCl` [HOCl], the Log reduction ([1]; 60 C, 3 hours, 4 cycles) is reported as 0–0.50 log.

In the case of `O=CO` [Formic acid], the Log reduction ([1]; 50 C, 2 hours, 3 cycles) is reported as 0 log.

In the case of `O=C(O)CC(=O)O` [Malonic acid], the Log reduction ([1]; 50 C, 2 hours, 3 cycles) is reported as 0–0.12 log.

With `CC(=O)O` [acetic acid] the “kill of the B. subtilis present” value ([2]; Example 3B: as 3A, samples with less than 10^6 CFU/ml) was “total kill”, the “log reduction in CFUs extrapolated for greater than 10^6 CFU/ml” value ([2]; Example 3B: extrapolated from total kill of samples with less than 10^6 CFU/ml) was 6 log and the kill of bioindicators ([2]; Example 3D: as 3A) was “Compete kill”.

With `O=C(O)CCC(=O)O` [Succinic acid] the Log reduction ([1]; 50 C, 2 hours, 3 cycles) was 0.25–0.29 log.

With `CCO` [Ethanol] the Log reduction ([1]; 60–50 C, 3 hours, 4 cycles) was 1.2–4.0 log.

In the case of `CC(=O)OO` [peracetic acid], the kill of bioindicators ([2]; Example 6B: as 6A) is reported as “Complete kill”, the “inactivation rates (log reduction in CFUs over time)” value ([3]; bioindicators in TYVEK pouches) is reported as “linear” and the “time for a single log reduction in the bioindicator” value ([3]; spores on glass fiber filters in TYVEK pouches, >10^6 CFUs per filter, 4 replicates per time point) is reported as 14.24 minutes.

For `O=C=O` [supercritical carbon dioxide, carbon dioxide], the “log reduction in B. subtilis spores” value (B. subtilis spores) is given as 3.5 log.

In the case of `O=P(O)(O)O` [Phosphoric acid], the Log reduction ([1]; 50 C, 2 hours, 3 cycles) is reported as 0.18–0.25 log.

For `O` [Ex. A, Water], the “Final CFU/ml” value [4] was 2.1 × 10^5 CFU/ml and the “Log reduction” value [4] was 1 log and 1.0 log.

For `O=C(O)C(F)(F)F` [Trifluoroacetic acid], the kill of bioindicators [5] was “Complete kill” and the “reduction in bacterial spores (sterility of bone samples)” value (bacterial spores) was > 10^6.
